Where two headings read alike, the source gives them in different places.
What was measured:
interferon (α) (IFN-α) = experiment: Cytokine induction in human cells: IFN-α secreted by PBMC into culture media (ELISA); type: cell-based; conditions: for minimal effective concentration / Maximal Response IFN / Minimum Effective Concentration IFN: human PBMC; for minimal effective concentration: lowest tested concentration inducing IFN-α over usually 20 pg/mL, median where more than one experiment, read-out: Minimum Effective Concentration (μM) IFN; for Maximal Response (pg/mL) IFN: maximal response in dose response curve, median; for Maximal Response IFN / Minimum Effective Concentration IFN: Table 11, median where tested in more than one experiment
From the text: (§1) Cytokine Induction in Human Cells
(§2) An in vitro human blood cell system is used to assess cytokine induction. Activity is based on the measurement of interferon (α) and tumor necrosis factor (α) (IFN-α and TNF-α, respectively) secreted into culture media as described by Testerman et. al. in “Cytokine Induction by the Immunomodulators Imiquimod and S-27609”, Journal of Leukocyte Biology, 58, 365-372 (September, 1995).
(§3) Blood Cell Preparation for Culture
(§4) Whole blood from healthy human donors is collected by venipuncture into vacutainer tubes or syringes containing EDTA. Peripheral blood mononuclear cells (PBMC) are separated from whole blood by density gradient centrifugation using HISTOPAQUE-1077 (Sigma, St. Louis, Mo.) or Ficoll-Paque Plus (Amersham Biosciences Piscataway, N.J.). Blood is diluted 1:1 with Dulbecco's Phosphate Buffered Saline (DPBS) or Hank's Balanced Salts Solution (HBSS). Alternately, whole blood is placed in Accuspin (Sigma) or LeucoSep (Oreiner Bio-One, Inc., Longwood, Fla.) centrifuge frit tubes containing density gradient medium. The PBMC layer is collected and washed twice with DPBS or HBSS and re-suspended at 4×10^6 cells/mL in RPMI complete. The PBMC suspension is added to 96 well flat bottom sterile tissue culture plates containing an equal volume of RPMI complete media containing test compound.
(§5) The compounds are solubilized in dimethyl sulfoxide (DMSO). The DMSO concentration should not exceed a final concentration of 1% for addition to the culture wells. The compounds are generally tested at concentrations ranging from 30-0.014 μM. Controls include cell samples with media only, cell samples with DMSO only (no compound), and cell samples with reference compound.
(§6) The solution of test compound is added at 60 μM to the first well containing RPMI complete and serial 3 fold dilutions are made in the wells. The PBMC suspension is then added to the wells in an equal volume, bringing the test compound concentrations to the desired range (usually 30-0.014 μM). The final concentration of PBMC suspension is 2×10^6 cells/mL. The plates are covered with sterile plastic lids, mixed gently and then incubated for 18 to 24 hours at 37° C. in a 5% carbon dioxide atmosphere.
(§7) Following incubation the plates are centrifuged for 10 minutes at 1000 rpm (approximately 200×g) at 4° C. The cell-free culture supernatant is removed and transferred to sterile polypropylene tubes. Samples are maintained at −30 to −70° C. until analysis. The samples are analyzed for IFN-α by ELISA and for TNF-α by IGEN/BioVeris Assay.
(§8) Interferon (α) and Tumor Necrosis Factor (α) Analysis
IFN-α concentration is determined with a human multi-subtype calorimetric sandwich ELISA (Catalog Number 41105) from PBL Biomedical Laboratories, Piscataway, N.J. Results are expressed in pg/mL.
(§9) In total, the data output of the assay consists of concentration values of TNF-α and IFN-α (y-axis) as a function of compound concentration (x-axis).
Analysis of the data has two steps. First, the greater of the mean DMSO (DMSO control wells) or the experimental background (usually 20 pg/mL for IFN-α and 40 pg/mL for TNF-α) is subtracted from each reading. If any negative values result from background subtraction, the reading is reported as “*”, and is noted as not reliably detectable. In subsequent calculations and statistics, “*”, is treated as a zero. Second, all background subtracted values are multiplied by a single adjustment ratio to decrease experiment to experiment variability. The adjustment ratio is the area of the reference compound in the new experiment divided by the expected area of the reference compound based on the past 61 experiments (unadjusted readings). […] The reference compound used is 2-[4-amino-2-ethoxymethyl-6,7,8,9-tetrahydro-α,α-dimethyl-1H-imidazo[4,5-c]quinolin-1-yl]ethanol hydrate (U.S. Pat. No. 5,352,784; Example 91) and the expected area is the sum of the median dose values from the past 61 experiments. […]

[1] = system: tumor necrosis factor (α) (TNF-α); experiment: Cytokine induction in human cells: TNF-α secreted by PBMC into culture media (ORIGEN M-Series immunoassay); type: cell-based; set-up: key to Maximal Response (pg/mL) TNF / Maximal Response TNF: If any negative values result from background subtraction, the reading is reported as “*”, and is noted as not reliably detectable; conditions: for minimal effective concentration / Minimum Effective Concentration TNF / Maximal Response TNF: human PBMC; for minimal effective concentration: lowest tested concentration inducing TNF-α over usually 40 pg/mL, median where more than one experiment, read-out: Minimum Effective Concentration (μM) TNF; for Maximal Response (pg/mL) TNF: maximal response in dose response curve; for Maximal Response (pg/mL) TNF / Maximal Response TNF: median; for Minimum Effective Concentration TNF / Maximal Response TNF: Table 11; for Minimum Effective Concentration TNF: median where tested in more than one experiment; for Maximal Response TNF: * = TNF below experimental background of 40 pg/mL
From the text: as §1, §2, §3, §4, §5, §6, §7, §8
The TNF-α concentration is determined by ORIGEN M-Series Immunoassay and read on an IGEN M-8 analyzer from BioVeris Corporation, formerly known as IGEN International, Gaithersburg, Md. The immunoassay uses a human TNF-α capture and detection antibody pair (Catalog Numbers AHC3419 and AHC3712) from Biosource International, Camarillo, Calif. Results are expressed in pg/mL.
as §9
Analysis of the data has two steps. First, the greater of the mean DMSO (DMSO control wells) or the experimental background (usually 20 pg/mL for IFN-α and 40 pg/mL for TNF-α) is subtracted from each reading. If any negative values result from background subtraction, the reading is reported as “*”, and is noted as not reliably detectable. In subsequent calculations and statistics, “*”, is treated as a zero. Second, all background subtracted values are multiplied by a single adjustment ratio to decrease experiment to experiment variability. The adjustment ratio is the area of the reference compound in the new experiment divided by the expected area of the reference compound based on the past 61 experiments (unadjusted readings). […]

[2] = Table 10, * = below experimental background level
[3] = Table 9, * = below experimental background level of 40 pg/mL

Structure (SMILES) | minimal effective concentration (interferon (α) (IFN-α); Table 10) [µM] | Maximal Response (pg/mL) IFN (interferon (α) (IFN-α); [2]) [pg/mL] | minimal effective concentration ([1]; Table 10) [µM] | Maximal Response (pg/mL) TNF [1, 2] [pg/mL] | Maximal Response IFN (interferon (α) (IFN-α)) [pg/mL] | Maximal Response TNF [1] | also measured
CCCNC(=O)NCCCCn1c(CCC)nc2c(N)nc3cc(-c4cccnc4)ccc3c21 [Analog 30] | 0.37 | 531 | 0.37 | 5284 |  |  | 
CC(C)C(=O)NCCCCn1c(CO)nc2c(N)nc3cc(-c4cccnc4)ccc3c21 [Example 199] |  | 5880 |  | 217 |  |  | 
CC(C)(O)Cn1c(CO)nc2c(N)nc3cc(-c4cccnc4)ccc3c21 [Example 163] | 0.37 |  | 10 | 51 |  |  | minimal effective concentration ([1]; Table 9): >30 µM; Maximal Response (pg/mL) TNF [1, 3]: *
CC(C)(O)Cn1c(CCO)nc2c(N)nc3cc(-c4ccccc4)ccc3c21 [Example 157] | 0.37 |  |  | 67 |  |  | 
COCCc1nc2c(N)nc3ccccc3c2n1CCCCCCCCNS(C)(=O)=O [Analog 118] |  |  |  |  | 1914 | 1853 pg/mL | Minimum Effective Concentration IFN (interferon (α) (IFN-α)): 0.014 µM; Minimum Effective Concentration TNF [1]: 0.014 µM
CCOCc1nc2c(N)nc3cc(-c4cccnc4)ccc3c2n1CC1CCN(C(=O)C(C)C)CC1 [Analog 18] | 0.12 | 2979 | 0.37 | 1449 |  |  | 
CCOCc1nc2c(N)nc3ccccc3c2n1CC(C)(C)NC(=O)NC(C)C [Analog 108] |  |  |  |  | 966 | 10587 pg/mL | Minimum Effective Concentration IFN (interferon (α) (IFN-α)): 0.37 µM; Minimum Effective Concentration TNF [1]: 1.11 µM
CN(CCOCCn1c(CCO)nc2c(N)nc3ccccc3c21)C(=O)c1ccccc1 [Example 134] |  |  |  |  | 8361 | 315 pg/mL | Minimum Effective Concentration IFN (interferon (α) (IFN-α)): 3.33 µM; Minimum Effective Concentration TNF [1]: 30 µM
COCc1nc2c(N)nc3cc(-c4cccnc4)ccc3c2n1CC(C)(C)O [Analog 11] | 0.37 | 829 | 1.11 | 3445 |  |  | 
CCc1nc2c(N)nc3cc(-c4cccnc4)ccc3c2n1CC(C)(C)O [Analog 8, 1-(4-amino-2-ethyl-7-pyridin-3-yl-1H-imidazo[4,5-c]quinolin-1-yl)-2-methylpropan-2-ol] |  | 1652 |  | 3571 |  |  | Maximal Response (pg/mL) IFN (interferon (α) (IFN-α); Table 9, background-subtracted, reference-adjusted): 1118 pg/mL; Maximal Response (pg/mL) TNF [1, 3]: 3234 pg/mL
CC(C)NC(=O)NC(C)(C)Cn1c(CO)nc2c(N)nc3ccccc3c21 [Example 142, 1-[2-(4-Amino-2-hydroxymethyl-1H-imidazo[4,5-c]quinolin-1-yl)-1,1-dimethylethyl]-3-(1-methylethyl)urea] |  |  |  |  | 1554 | * | 

Reference: patent US8846710B2, “Method of preferentially inducing the biosynthesis of interferon” (3M Innovative Properties Company, priority 2005, dated 2014)
